Numbered stars: 1 amine (or outer) side, 2 acyl side, 3 side chain; on linkers, the order of the positions; unused ones are H or OH. Bridge positions count the residues as written; N and C are the ends. Square brackets hold non-standard residues; d marks the D form. Peptide text beside a SMILES is read from it. * marks the point of attachment. hTyr(3S-OH,4S-OH,3'-OSO3H) = N[C@H](C(=O)O)[C@H](O)[C@@H](O)c1ccc(O)c(OS(=O)(=O)O)c1; Orn(4R-OH,5R-OH) = O=C([C@H](C[C@@H](O)[C@@H](O)N[*:3])N[*:1])[*:2]; Pro(3S-OH,4S-Me) = C[C@H]1CN[C@H](C(=O)O)[C@H]1O; X1 = CCCCCOc1ccc(-c2cc(-c3ccc(C(=O)*)cc3)no2)cc1; Gln(3R-OH) = NC(=O)C[C@@H](O)[C@H](N)C(=O)O; Hyp = O=C(O)[C@@H]1C[C@@H](O)CN1
Assay: Purity and stability test: samples sealed at 25° C. for 30 days, purity by HPLC
Assay type: physicochemical
Settings: for Purity of initial sample: before storage, HPLC purity (baseline of the stability test); for Purity of sample after stored at 25° C. for 30 days: sealed, HPLC purity
Text: High performance liquid chromatography (HPLC) is a common method for determining the purity of a compound, wherein a liquid is used as the mobile phase and a high-pressure transfusion system is used for pumping the mobile phase, such as single solvents with different polarities, a mixture of solvents at different proportions, or buffers, into a column packed with a stationary phase. Each component is separated in the column, and then enters into a detector for detection, thereby analyzing a sample. In the present invention, HPLC is used for determining the purity of the compound of formula I and studying the stability of a sample. The HPLC method is as follows:
Analysis Column: YMC-ODS 250×4.6 mm, 5 μm;
Mobile phase: acetonitrile:phosphate buffer (pH 3.0)=45:70;
Column temperature: 35° C.;
Diluent: aqueous phosphate buffer;
Detection wavelength: 210 nm;
In this Example, the purity and stability of the samples obtained in Comparative Examples and Examples were compared. The method used is as follows:
Crystals A-C of the compound of formula I prepared in Examples 2, 11 and 15, the crystal of B82 type obtained in Comparative Example 1 and the amorphous solid obtained in Example 1 were taken respectively and sealed at 25° C. for 30 days. And then the content of impurities in the sample was analyzed. Results of comparing the stability of crystals A-C of the compound of formula I according to the present invention, the crystal of B82 type and the amorphous solid are shown in the following table: […]

| SMILES | Purity of initial sample [%] | Purity of sample after stored at 25° C. for 30 days [%] | stability compared with the B82-type crystal and the amorphous solid (result in words) |
| --- | --- | --- | --- |
| CCCCCOc1ccc(-c2cc(-c3ccc(C(=O)N[C@H]4C[C@@H](O)[C@@H](O)NC(=O)[C@@H]5[C@@H](O)[C@@H](C)CN5C(=O)[C@H]([C@H](O)CC(N)=O)NC(=O)[C@H]([C@H](O)[C@@H](O)c5ccc(O)c(OS(=O)(=O)[O-])c5)NC(=O)[C@@H]5C[C@@H](O)CN5C(=O)[C@H]([C@@H](C)O)NC4=O)cc3)no2)cc1.[Na+] [Amorphous solid, Sodium 5-[(1S,2S)-2-[(3S,6S,9S,11R,15S,18S,20R,21R,24S,25S,26S)-3-[(R)-2-carbamoyl-1-hydroxyethyl]-11,20,21,25-tetrahydroxy-15-[(R)-1-hydroxyethyl]-26-methyl-2,5,8,14,17,23-hexaoxo-18-[4-[5-(4-pentoxyphenyl)isoxazol-3-yl]benzoylamino]-1,4,7,13,16,22-hexaazatricyclo[22.3.0.0^9,13]heptacosan-6-yl]-1,2-dihydroxyethyl]-2-hydroxy phenyl sulfate., reference compound] (X1-[Orn(4R-OH,5R-OH)]T[Hyp][hTyr(3S-OH,4S-OH,3'-OSO3H)][Gln(3R-OH)][Pro(3S-OH,4S-Me)]; lactam 1-C) | 99.38 | 89.27 | – |
| CCCCCOc1ccc(-c2cc(-c3ccc(C(=O)N[C@H]4C[C@@H](O)[C@@H](O)NC(=O)[C@@H]5[C@@H](O)[C@@H](C)CN5C(=O)[C@H]([C@H](O)CC(N)=O)NC(=O)[C@H]([C@H](O)[C@@H](O)c5ccc(O)c(OS(=O)(=O)[O-])c5)NC(=O)[C@@H]5C[C@@H](O)CN5C(=O)[C@H]([C@@H](C)O)NC4=O)cc3)no2)cc1.[Na+] [B82-type Crystal, Sodium 5-[(1S,2S)-2-[(3S,6S,9S,11R,15S,18S,20R,21R,24S,25S,26S)-3-[(R)-2-carbamoyl-1-hydroxyethyl]-11,20,21,25-tetrahydroxy-15-[(R)-1-hydroxyethyl]-26-methyl-2,5,8,14,17,23-hexaoxo-18-[4-[5-(4-pentoxyphenyl)isoxazol-3-yl]benzoylamino]-1,4,7,13,16,22-hexaazatricyclo[22.3.0.0^9,13]heptacosan-6-yl]-1,2-dihydroxyethyl]-2-hydroxy phenyl sulfate., reference compound] (X1-[Orn(4R-OH,5R-OH)]T[Hyp][hTyr(3S-OH,4S-OH,3'-OSO3H)][Gln(3R-OH)][Pro(3S-OH,4S-Me)]; lactam 1-C) | 99.50 | 96.98 | – |
| CCCCCOc1ccc(-c2cc(-c3ccc(C(=O)N[C@H]4C[C@@H](O)[C@@H](O)NC(=O)[C@@H]5[C@@H](O)[C@@H](C)CN5C(=O)[C@H]([C@H](O)CC(N)=O)NC(=O)[C@H]([C@H](O)[C@@H](O)c5ccc(O)c(OS(=O)(=O)[O-])c5)NC(=O)[C@@H]5C[C@@H](O)CN5C(=O)[C@H]([C@@H](C)O)NC4=O)cc3)no2)cc1.[Na+] [Crystal A, Sodium 5-[(1S,2S)-2-[(3S,6S,9S,11R,15S,18S,20R,21R,24S,25S,26S)-3-[(R)-2-carbamoyl-1-hydroxyethyl]-11,20,21,25-tetrahydroxy-15-[(R)-1-hydroxyethyl]-26-methyl-2,5,8,14,17,23-hexaoxo-18-[4-[5-(4-pentoxyphenyl)isoxazol-3-yl]benzoylamino]-1,4,7,13,16,22-hexaazatricyclo[22.3.0.0^9,13]heptacosan-6-yl]-1,2-dihydroxyethyl]-2-hydroxy phenyl sulfate.] (X1-[Orn(4R-OH,5R-OH)]T[Hyp][hTyr(3S-OH,4S-OH,3'-OSO3H)][Gln(3R-OH)][Pro(3S-OH,4S-Me)]; lactam 1-C) | 99.68 | 99.65 | significantly superior than that of the crystal of B82 type |
| CCCCCOc1ccc(-c2cc(-c3ccc(C(=O)N[C@H]4C[C@@H](O)[C@@H](O)NC(=O)[C@@H]5[C@@H](O)[C@@H](C)CN5C(=O)[C@H]([C@H](O)CC(N)=O)NC(=O)[C@H]([C@H](O)[C@@H](O)c5ccc(O)c(OS(=O)(=O)[O-])c5)NC(=O)[C@@H]5C[C@@H](O)CN5C(=O)[C@H]([C@@H](C)O)NC4=O)cc3)no2)cc1.[Na+] [Crystal B, Sodium 5-[(1S,2S)-2-[(3S,6S,9S,11R,15S,18S,20R,21R,24S,25S,26S)-3-[(R)-2-carbamoyl-1-hydroxyethyl]-11,20,21,25-tetrahydroxy-15-[(R)-1-hydroxyethyl]-26-methyl-2,5,8,14,17,23-hexaoxo-18-[4-[5-(4-pentoxyphenyl)isoxazol-3-yl]benzoylamino]-1,4,7,13,16,22-hexaazatricyclo[22.3.0.0^9,13]heptacosan-6-yl]-1,2-dihydroxyethyl]-2-hydroxy phenyl sulfate.] (X1-[Orn(4R-OH,5R-OH)]T[Hyp][hTyr(3S-OH,4S-OH,3'-OSO3H)][Gln(3R-OH)][Pro(3S-OH,4S-Me)]; lactam 1-C) | 99.55 | 99.50 | – |
| CCCCCOc1ccc(-c2cc(-c3ccc(C(=O)N[C@H]4C[C@@H](O)[C@@H](O)NC(=O)[C@@H]5[C@@H](O)[C@@H](C)CN5C(=O)[C@H]([C@H](O)CC(N)=O)NC(=O)[C@H]([C@H](O)[C@@H](O)c5ccc(O)c(OS(=O)(=O)[O-])c5)NC(=O)[C@@H]5C[C@@H](O)CN5C(=O)[C@H]([C@@H](C)O)NC4=O)cc3)no2)cc1.[Na+] [Crystal C, Sodium 5-[(1S,2S)-2-[(3S,6S,9S,11R,15S,18S,20R,21R,24S,25S,26S)-3-[(R)-2-carbamoyl-1-hydroxyethyl]-11,20,21,25-tetrahydroxy-15-[(R)-1-hydroxyethyl]-26-methyl-2,5,8,14,17,23-hexaoxo-18-[4-[5-(4-pentoxyphenyl)isoxazol-3-yl]benzoylamino]-1,4,7,13,16,22-hexaazatricyclo[22.3.0.0^9,13]heptacosan-6-yl]-1,2-dihydroxyethyl]-2-hydroxy phenyl sulfate.] (X1-[Orn(4R-OH,5R-OH)]T[Hyp][hTyr(3S-OH,4S-OH,3'-OSO3H)][Gln(3R-OH)][Pro(3S-OH,4S-Me)]; lactam 1-C) | 99.64 | 99.43 | – |
